One data set deals with T1, Androgen receptor (AR) (Homo sapiens, UniProt P10275, T878A).
T1 construct: 5.5×10^5 LNCap cells were injected into each well of a 6-well plate; endogenous in cells; host or cells: LNCaP
T1 sequence (P10275 1-920 T878A): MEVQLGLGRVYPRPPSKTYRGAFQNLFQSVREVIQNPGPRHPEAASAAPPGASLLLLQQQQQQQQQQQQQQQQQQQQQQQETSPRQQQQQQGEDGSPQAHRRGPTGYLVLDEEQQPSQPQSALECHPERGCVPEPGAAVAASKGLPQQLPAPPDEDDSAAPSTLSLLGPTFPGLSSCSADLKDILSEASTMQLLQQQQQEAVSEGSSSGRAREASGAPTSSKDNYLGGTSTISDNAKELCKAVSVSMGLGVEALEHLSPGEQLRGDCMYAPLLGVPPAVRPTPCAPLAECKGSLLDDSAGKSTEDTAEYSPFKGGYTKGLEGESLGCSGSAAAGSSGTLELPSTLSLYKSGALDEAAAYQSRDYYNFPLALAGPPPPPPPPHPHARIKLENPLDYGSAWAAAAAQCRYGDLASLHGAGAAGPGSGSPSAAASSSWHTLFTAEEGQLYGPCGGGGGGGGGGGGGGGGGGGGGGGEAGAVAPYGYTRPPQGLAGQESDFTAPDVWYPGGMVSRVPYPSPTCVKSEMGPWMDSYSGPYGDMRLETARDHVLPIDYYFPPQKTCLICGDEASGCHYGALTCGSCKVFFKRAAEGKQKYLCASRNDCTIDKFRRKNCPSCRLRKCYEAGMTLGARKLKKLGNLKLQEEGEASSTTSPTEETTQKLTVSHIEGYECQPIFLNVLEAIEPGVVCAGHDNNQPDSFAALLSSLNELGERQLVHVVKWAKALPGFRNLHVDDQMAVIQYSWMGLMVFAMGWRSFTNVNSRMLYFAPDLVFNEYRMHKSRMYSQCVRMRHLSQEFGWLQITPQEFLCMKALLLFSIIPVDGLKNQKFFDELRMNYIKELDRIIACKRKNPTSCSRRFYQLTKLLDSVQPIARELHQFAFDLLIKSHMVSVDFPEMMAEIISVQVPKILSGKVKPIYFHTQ
The experiment in a line: Assessment of AR proteolytic activity (Western blotting of LNCap cell lysates). The data set is classed as cell-based. Particulars: 24 hours of treatment, Western blotting quantified with Image J. In outline: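 AR degradation read by Western blot densitometry on RIPA lysates (pH 7.5, protease inhibitor cocktail). Lysates came from LNCap cells, 5.5×10^5 per well, exposed to compound for 24 hours.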
In general terms: A western blot detects proteins with antibodies after separation by electrophoresis.

The next data set has as its system VCaP cells. Kind of data set: Cytotoxicity assessment (Cell-titer-glo cell viability), VCaP.
[1] abbreviates: read-out: VCaP (CC50), VCaP cells, 6 days of treatment, Cell-titer-glo, vs DMSO.

SMILES strings stand for the structures. Like-named read-outs stand apart in the source and are kept apart here.

In general, CC50 refers to the concentration giving 50% cytotoxicity. Consider `CC1(C)C(NC(=O)c2ccc(N3CCN(C=C4CCN(C(=O)C5CCN(c6ccc7nnn(C8CCC(=O)NC8=O)c(=O)c7c6)CC5)CC4)CC3)cc2)C(C)(C)C1Oc1ccc(C#N)c(Cl)c1` (centres unmarked) [Example 65, N-((1r,3r)-3-(3-chloro-4-cyanophenoxy)-2,2,4,4-tetramethylcyclobutyl)-4-(4-((1-(1-(3-(2,6-dioxopiperidin-3-yl)-4-oxo-3,4-dihydrobenzo[d][1,2,3]triazin-6-yl)piperidine-4-carbonyl)piperidin-4-ylidene)methyl)piperazin-1-yl)benzamide], for which, on Androgen receptor (AR), the “Degradation (1 μM treated in LNCaP, % AR remaining)” value is 25%. Moreover, the CC50 with VCaP cells (setting [1]) was determined as 0.044 µM. `CC1(C)C(NC(=O)c2ccc(N3CCN(CCCC4CCN(C(=O)C5CCN(c6ccc7nnn(C8CCC(=O)NC8=O)c(=O)c7c6)CC5)CC4)CC3)cc2)C(C)(C)C1Oc1ccc(C#N)c(Cl)c1` (centres unmarked) [Example 46, N-((1r,3r)-3-(3-chloro-4-cyanophenoxy)-2,2,4,4-tetramethylcyclobutyl)-4-(4-(3-(1-(1-(3-(2,6-dioxopiperidin-3-yl)-4-oxo-3,4-dihydrobenzo[d][1,2,3]triazin-6-yl)piperidine-4-carbonyl)piperidin-4-yl)propyl)piperazin-1-yl)benzamide]: the “Degradation (1 μM treated in LNCaP, % AR remaining)” value at Androgen receptor (AR) is recorded as 15.6%. Besides, in the data set with VCaP cells (setting [1]), the CC50 is 0.0522 µM. As for `CC1(C)C(NC(=O)c2ccc(N3CCN(CC4(F)CCN(C(=O)C5CCN(c6ccc7nnn(C8CCC(=O)NC8=O)c(=O)c7c6)CC5)CC4)CC3)cc2)C(C)(C)C1Oc1ccc(C#N)c(Cl)c1` (centres unmarked) [Example 62, N-((1r,3r)-3-(3-chloro-4-cyanophenoxy)-2,2,4,4-tetramethylcyclobutyl)-4-(4-((1-(1-(3-(2,6-dioxopiperidin-3-yl)-4-oxo-3,4-dihydrobenzo[d][1,2,3]triazin-6-yl)piperidine-4-carbonyl)-4-fluoropiperidin-4-yl)methyl)piperazin-1-yl)benzamide], the “Degradation (1 μM treated in LNCaP, % AR remaining)” value on Androgen receptor (AR) turned out to be 15%. Further, the CC50 in the data set on VCaP cells (setting [1]) was 0.0345 µM.

`CC1(C)[C@H](NC(=O)c2ccc(N3CCN(CC4(F)CCN(c5ccc6nnn(C7CCC(=O)NC7=O)c(=O)c6c5)CC4)CC3)cc2)C(C)(C)[C@H]1Oc1ccc(C#N)c(Cl)c1` (some centres unmarked) [Example 61, N-((1r,3r)-3-(3-chloro-4-cyanophenoxy)-2,2,4,4-tetramethylcyclobutyl)-4-(4-((1-(3-(2,6-dioxopiperidin-3-yl)-4-oxo-3,4-dihydrobenzo[d][1,2,3]triazin-6-yl)-4-fluoropiperidin-4-yl)methyl)piperazin-1-yl)benzamide]: at Androgen receptor (AR) (read-out: Degradation (1 μM treated in LNCaP, % AR remaining)), the remaining activity at 1 µM was found to be 25%. In addition, the CC50 in the data set with VCaP cells (Homo sapiens, VCaP, 144 h, read-out: VCaP (CC50, μM)) came to 0.29 µM. As for `CC1(C)C(NC(=O)c2ccc(N3CCN(CC4CCN(C(=O)C5CN(c6ccc7nnn(C8CCC(=O)NC8=O)c(=O)c7c6)C5)CC4)CC3)nc2)C(C)(C)C1Oc1ccc(C#N)c(Cl)c1` (centres unmarked) [Example 80, N-((1r,3r)-3-(3-chloro-4-cyanophenoxy)-2,2,4,4-tetramethylcyclobutyl)-6-(4-((1-(1-(3-(2,6-dioxopiperidin-3-yl)-4-oxo-3,4-dihydrobenzo[d][1,2,3]triazin-6-yl)azetidine-3-carbonyl)piperidin-4-yl)methyl)piperazin-1-yl)nicotinamide], the “Degradation (1 μM treated in LNCaP, % AR remaining)” value at Androgen receptor (AR) came out at 56%. In addition, the CC50 in the data set with VCaP cells (setting [1]) amounted to 0.01 µM. With `CC1(C)C(NC(=O)c2ccc(-c3cnn(C4CCN(CC5CCN(C(=O)C6CCN(c7ccc8nnn(C9CCC(=O)NC9=O)c(=O)c8c7)CC6)CC5)CC4)c3)cc2)C(C)(C)C1Oc1ccc(C#N)c(Cl)c1` (centres unmarked) [Example 82, N-((1r,3r)-3-(3-chloro-4-cyanophenoxy)-2,2,4,4-tetramethylcyclobutyl)-4-(1-(1-((1-(1-(3-(2,6-dioxopiperidin-3-yl)-4-oxo-3,4-dihydrobenzo[d][1,2,3]triazin-6-yl)piperidine-4-carbonyl)piperidin-4-yl)methyl)piperidin-4-yl)-1H-pyrazol-4-yl)benzamide], the “Degradation (1 μM treated in LNCaP, % AR remaining)” value on Androgen receptor (AR) worked out at 27%. Also, the CC50 with VCaP cells (setting [1]) was 0.0144 µM. Turning to `CC1(C)[C@H](NC(=O)c2ccc(C3CCN(CCOC4CCN(C(=O)C5CCN(c6ccc7nnn(C8CCC(=O)NC8=O)c(=O)c7c6)CC5)CC4)CC3)cc2)C(C)(C)[C@H]1Oc1ccc(C#N)c(Cl)c1` (some centres unmarked) [Example 74, N-((1r,3r)-3-(3-chloro-4-cyanophenoxy)-2,2,4,4-tetramethylcyclobutyl)-4-(1-(2-((1-(1-(3-(2,6-dioxopiperidin-3-yl)-4-oxo-3,4-dihydrobenzo[d][1,2,3]triazin-6-yl)piperidine-4-carbonyl)piperidin-4-yl)oxy)ethyl)piperidin-4-yl)benzamide], the “Degradation (1 μM treated in LNCaP, % AR remaining)” value on Androgen receptor (AR) was determined as 20%. Further, the CC50 in the data set with VCaP cells (setting [1]) stood at 0.0732 µM.

Consider `CC1(C)C(NC(=O)c2ccc(N3CC4CC3CN4C3CC4(CCN(C(=O)C5CCN(c6ccc7nnn(C8CCC(=O)NC8=O)c(=O)c7c6)CC5)CC4)C3)cc2)C(C)(C)C1Oc1ccc(C#N)c(Cl)c1` (centres unmarked) [Example 71, N-((1r,3r)-3-(3-chloro-4-cyanophenoxy)-2,2,4,4-tetramethylcyclobutyl)-4-(5-(7-(1-(3-(2,6-dioxopiperidin-3-yl)-4-oxo-3,4-dihydrobenzo[d][1,2,3]triazin-6-yl)piperidine-4-carbonyl)-7-azaspiro[3.5]nonan-2-yl)-2,5-diazabicyclo[2.2.1]heptan-2-yl)benzamide], for which, at Androgen receptor (AR), the “Degradation (1 μM treated in LNCaP, % AR remaining)” value is 37%. The CC50 in the data set on VCaP cells (setting [1]) was 0.0705 µM. Consider `CC1(C)[C@H](NC(=O)c2ccc(C3CCN(CC4CCN(C(=O)C5CCN(c6ccc7nnn(C8CCC(=O)NC8=O)c(=O)c7c6)CC5)CC4)CC3)cc2)C(C)(C)[C@H]1Oc1ccc(C#N)c(Cl)c1` (some centres unmarked) [Example 51, N-((1r,3r)-3-(3-chloro-4-cyanophenoxy)-2,2,4,4-tetramethylcyclobutyl)-4-(1-((1-(1-(3-(2,6-dioxopiperidin-3-yl)-4-oxo-3,4-dihydrobenzo[d][1,2,3]triazin-6-yl)piperidine-4-carbonyl)piperidin-4-yl)methyl)piperidin-4-yl)benzamide], for which the “Degradation (1 μM treated in LNCaP, % AR remaining)” value on Androgen receptor (AR) is recorded as 10.4%. Besides, the CC50 in the data set on VCaP cells (setting [1]) came to 0.228 µM. For `CC1(C)C(NC(=O)c2ccc(N3CCN(CC4CCN(c5ccc6nnn(C7CCC(=O)NC7=O)c(=O)c6c5)CC4)CC3)nc2)C(C)(C)C1Oc1ccc(C#N)c(Cl)c1` (centres unmarked) [Example 78, N-((1r,3r)-3-(3-chloro-4-cyanophenoxy)-2,2,4,4-tetramethylcyclobutyl)-6-(4-((1-(3-(2,6-dioxopiperidin-3-yl)-4-oxo-3,4-dihydrobenzo[d][1,2,3]triazin-6-yl)piperidin-4-yl)methyl)piperazin-1-yl)nicotinamide], in that order: 24% and 0.00768 µM. Take `CC1(C)C(NC(=O)c2ccc(C#CC3CCN(CC4CCN(C(=O)C5CN(c6ccc7nnn(C8CCC(=O)NC8=O)c(=O)c7c6)C5)CC4)CC3)cc2)C(C)(C)C1Oc1ccc(C#N)c(Cl)c1` (centres unmarked) [Example 96, N-((1r,3r)-3-(3-chloro-4-cyanophenoxy)-2,2,4,4-tetramethylcyclobutyl)-4-((1-((1-(1-(3-(2,6-dioxopiperidin-3-yl)-4-oxo-3,4-dihydrobenzo[d][1,2,3]triazin-6-yl)azetidine-3-carbonyl)piperidin-4-yl)methyl)piperidin-4-yl)ethynyl)benzamide]: in the data set with VCaP cells (setting [1]), the 50% cytotoxic concentration (CC50) was determined as 0.00803 µM. The same measure, in the same setting: the result for `CC1(C)[C@H](NC(=O)c2ccc(N3CC4CN(CC5CCN(C(=O)C6CN(c7ccc8nnn(C9CCC(=O)NC9=O)c(=O)c8c7)C6)CC5)CC4C3)cc2)C(C)(C)[C@H]1Oc1ccc(C#N)c(Cl)c1` (some centres unmarked) [Example 140, N-((1r,3r)-3-(3-chloro-4-cyanophenoxy)-2,2,4,4-tetramethylcyclobutyl)-4-(5-((1-(1-(3-(2,6-dioxopiperidin-3-yl)-4-oxo-3,4-dihydrobenzo[d][1,2,3]triazin-6-yl)azetidine-3-carbonyl)piperidin-4-yl)methyl)hexahydropyrrolo[3,4-c]pyrrol-2(1H)-yl)benzamide] reads 0.03 µM.

On to `CC1(C)[C@H](NC(=O)c2ccc(N3CCN(Cc4cn(-c5ccc6nnn(C7CCC(=O)NC7=O)c(=O)c6c5)nn4)CC3)cc2)C(C)(C)[C@H]1Oc1ccc(C#N)c(Cl)c1` (some centres unmarked) [Example 91, N-((1r,3r)-3-(3-chloro-4-cyanophenoxy)-2,2,4,4-tetramethylcyclobutyl)-4-(4-((1-(3-(2,6-dioxopiperidin-3-yl)-4-oxo-3,4-dihydrobenzo[d][1,2,3]triazin-6-yl)-1H-1,2,3-triazol-4-yl)methyl)piperazin-1-yl)benzamide], for which the CC50 in the data set with VCaP cells (setting [1]) is 0.262 µM.

Source of the values: US20240018123A1, “COMPOUND FOR INHIBITING OR DISINTEGRATING ANDROGEN RECEPTOR, AND PHARMACEUTICAL USE THEREOF” (KOREA RESEARCH INSTITUTE OF CHEMICAL TECHNOLOGY, priority 2020, published 2024).
